This is an account of results in patent EP0774460A1, “BENZOIC ACID COMPOUND AND USE THEREOF AS MEDICINE” (YOSHITOMI PHARMACEUTICAL INDUSTRIES, LTD., priority 1994, dated 1995).

pEC50, pIC50: −log10 of the molar value.

The target in one test is T1, 5-HT3 receptor (Rattus norvegicus, UniProt P35563).
T1 construct: crude synapse membrane sample was prepared from rat cerebral cortex; from tissue; host or cells: rat cerebral cortex, crude synaptic membranes
T1 sequence (P35563 24-483): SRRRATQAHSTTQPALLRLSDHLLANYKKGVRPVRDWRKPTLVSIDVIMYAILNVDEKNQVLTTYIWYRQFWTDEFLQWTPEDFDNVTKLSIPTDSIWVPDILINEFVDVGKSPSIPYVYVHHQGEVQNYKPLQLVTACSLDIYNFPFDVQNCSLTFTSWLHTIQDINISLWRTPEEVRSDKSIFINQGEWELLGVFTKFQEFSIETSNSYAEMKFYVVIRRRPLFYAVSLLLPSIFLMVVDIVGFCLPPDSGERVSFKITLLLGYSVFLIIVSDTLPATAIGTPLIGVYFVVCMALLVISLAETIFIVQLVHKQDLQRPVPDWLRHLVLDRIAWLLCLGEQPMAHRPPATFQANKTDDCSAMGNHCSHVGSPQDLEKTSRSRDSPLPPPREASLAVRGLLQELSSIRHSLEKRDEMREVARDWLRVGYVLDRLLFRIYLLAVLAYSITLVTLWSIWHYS
Briefly: 5-HT3 receptor binding test. The following applies: [3H]Granisetron 1.0 nM, crude synapse membrane from rat cerebral cortex, 25°C; cells marked * are IC50; read-out: Affinity for receptor 5-HT3 (∗ shows IC50). As to the method:
Experimental Example 2 : 5-HT3 receptor binding test
According to the method of Peroutka et al (European Journal of Pharmacology, vol. 148, pp. 297-299), a specific 5-HT3 receptor binding test was run using, as a tracer ligand, endo-1-methyl-N-(9-methyl-9-azabicyclo[3.3.1]non-3-yl)-1H-indazole-3-carboxamide substituted by tritium (hereinafter to be referred to as [3H]Granisetron). Specifically, crude synapse membrane sample was prepared from rat cerebral cortex, suspended in 50 mM HEPES buffer (pH 7.4) and used for testing. The test compound having several different concentrations and [3H]Granisetron (final concentration 1.0 nM) were added to this suspension and allowed to react at 25°C. Thirty minutes later, the reaction mixture was filtered by suction with cell harvester. The filter was washed with 50 mM Tris buffer (pH 7.4), and the radioactivity on the filter was counted using liquid scintillation counter or β-plate. The non-specific binding was determined in the presence of 1 µM Tropisetron. The concentration of the test compound necessary for 50% inhibition (IC50) and Ki value were determined from graph.

The next test concerns the target T2, 5-HT4 receptor (Cavia porcellus, UniProt O70528).
T2 construct: crude synapse membrane sample was prepared from guinea pig striatum; from tissue; host or cells: guinea pig striatum, crude synaptic membranes
Briefly: 5-HT4 receptor binding test. Details: species or system guinea pig. The following applies: [3H]GR113808 0.1 nM, crude synapse membrane from guinea pig striatum, 37°C; read-out: Affinity for receptor (Ki value, nM) 5-HT4. As to the method: Experimental Example 1 : 5-HT4 receptor binding test
According to the method of C.J. Grossman et al. (British Journal of Pharmacology, vol. 109, pp. 618-624), a specific 5-HT4 receptor binding test was run using, as a tracer ligand, 1-methyl-1H-indole-3-carboxylic acid · 1-(2-methylsulfonylaminoethyl)-piperidin-4-ylmethyl ester substituted by tritium (hereinafter to be referred to as [3H]GR113808). Specifically, crude synapse membrane sample was prepared from guinea pig striatum, suspended in 50 mM HEPES buffer (pH 7.4) and used for testing. The test compound having several different concentrations and [3H]GR113808 (final concentration 0.1 nM) were added to this suspension and allowed to react at 37°C. Thirty minutes later, the reaction mixture was filtered by suction with cell harvester. The filter was washed with 50 mM HEPES buffer, and the radioactivity on the filter was counted by liquid scintillation counter. The non-specific binding was determined in the presence of 1 µM GR113808. The concentration of the test compound necessary for 50% inhibition (IC50) and Ki value were determined from graph.

Test [1] addresses isolated guinea pig ascending colon (Cavia porcellus, UniProt O70528). Put plainly: contraction of isolated guinea pig ascending colon. The class given is cell-based. The settings on record: male Hartley guinea pig ascending colon, Tyrode solution 37°C, relative to methacholine (30 µM) contraction; read-out: Contraction of removed colon (EC50). As to the method: Experimental Example 3 : contraction of isolated guinea pig ascending colon
About 3 cm long ascending colon segment was taken from male Hartley guinea pig and suspended in 10 ml of a Tyrode solution ventilated with a mixed gas of oxygen (95%) and CO2 (5%) at 37°C with the load of 2 g. The contraction was isotonically measured via isotonic transducer. After an equilibrium period of about 30 min, the test compound was administered non-cumulatively from lower concentrations, and dose-dependent contraction was measured. The test compound was administered at 15 minutes intervals. Then, contraction by the test compound in the presence of a 5-HT4 receptor antagonist, 4-amino-3-chloro-6-methoxybenzoic acid · 2-diethylaminoethyl ester (0.3 µM, hereinafter to be referred to as SDZ 205-557) was determined, and antagonistic effect on the reaction by SDZ 205-557 was confirmed.
The contraction by the test compound was evaluated based on the ratio of reaction relative to mean contraction induced by methacholine (30 µM) administered before and after each determination of dose-dependent contraction. The contraction was probit-converted using the maximum value of dose-response curve as 100, and expressed by EC50 as determined from linear regression and maximum reaction ratio.

Chain of isolated guinea pig ascending colon (O70528 whole entry): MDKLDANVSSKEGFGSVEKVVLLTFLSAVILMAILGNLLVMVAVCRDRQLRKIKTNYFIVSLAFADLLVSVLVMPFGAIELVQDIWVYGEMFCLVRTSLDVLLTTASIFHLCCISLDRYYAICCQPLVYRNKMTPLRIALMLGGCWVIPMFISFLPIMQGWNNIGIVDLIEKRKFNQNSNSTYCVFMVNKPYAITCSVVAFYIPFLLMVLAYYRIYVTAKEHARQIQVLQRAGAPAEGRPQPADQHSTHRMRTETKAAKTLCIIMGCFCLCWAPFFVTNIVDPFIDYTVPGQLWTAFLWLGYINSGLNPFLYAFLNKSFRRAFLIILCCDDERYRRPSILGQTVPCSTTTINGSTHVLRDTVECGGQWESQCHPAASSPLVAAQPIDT
T2 sequence (O70528 whole entry): as above

Turning to `CCCNC(=O)NCCCCCN1CCC(CNC(=O)c2cc(Cl)c(N)cc2OC)CC1` [Example 48, 4-amino-5-chloro-2-methoxy-N-(1-(5-(3-n-propylureido)pentyl)piperidin-4-ylmethyl)benzamide], the pIC50 (as a rule, the negative decadic logarithm of the IC50, by convention in mol/L) on 5-HT3 receptor was < 6.00. Besides, at 5-HT4 receptor, the Ki (commonly the dissociation constant of the complex between target and ligand, obtained from inhibition or displacement) is 2.1 nM. Further, the pEC50 (usually −log10 of the EC50, conventionally taken in molar units) in test [1] was 8.32.
In the same order, the values of `COc1cc(N)c(Cl)cc1C(=O)NC[C@H]1CCN(CCCCCNC(=O)c2ccccc2)C1` [Example 27, 4-amino-N-((3R)-1-(5-benzoylaminopentyl)pyrrolidin-3-yl-methyl)-5-chloro-2-methoxybenzamide] are < 6.00, 2.2 nM and 8.28.
`COc1cc(N)c(Cl)cc1C(=O)NCC1CCN(CCCCNC(=O)c2cn(C)c3ccccc23)CC1` [Example 98, N-(4-(4-(4-amino-5-chloro-2-methoxybenzoylaminomethyl)piperidin-1-yl)butyl)-1-methyl-1H-indole-3-carboxamide]: the pIC50 on 5-HT3 receptor was < 6.00. In addition, the Ki on 5-HT4 receptor worked out at 1.6 nM. In addition, the pEC50 in test [1] is 8.40.
For `COc1cc(N)c(Cl)cc1C(=O)NCC1CCN(CCCCCNC(=O)c2cn(C)c3ccccc23)CC1` [Example 90, N-(5-(4-(4-amino-5-chloro-2-methoxybenzoylaminomethyl)piperidin-1-yl)pentyl)-1-methyl-1H-indole-3-carboxamide] the same measures were < 6.00, 0.43 nM and 9.05.
On to `COc1cc(N)c(Cl)cc1C(=O)NCC1CCN(CCCCCNC(=O)c2ccccc2)CC1` [Example 29, 4-amino-N-(1-(5-benzoylaminopentyl)piperidin-4-ylmethyl)-5-chloro-2-methoxybenzamide], for which the pIC50 on 5-HT3 receptor was < 6.00. Also, the Ki on 5-HT4 receptor stood at 1.7 nM. In test [1], the negative logarithm of the EC50 (pEC50) is 8.43.
`COc1cc(N)c(Cl)cc1C(=O)NCC1CCN(CCCCCNC(=O)c2cccc(Cl)c2)CC1` [Example 30, 4-amino-5-chloro-N-(1-(5-(3-chlorobenzoylamino)pentyl)piperidin-4-ylmethyl)-2-methoxybenzamide]: at 5-HT3 receptor, the pIC50 was < 6.00. Also, at 5-HT4 receptor, the Ki was 0.81 nM. Besides, in test [1], the pEC50 was 8.80.
As for `COc1cc(N)c(Cl)cc1C(=O)NCC1CCN(CCCCNC(=O)c2ccc3ccccc3c2)CC1` [Example 25, 4-amino-5-chloro-2-methoxy-N-(1-(4-(2-naphthoylamino)butyl)piperidin-4-ylmethyl) benzamide], at 5-HT3 receptor, the pIC50 is < 6.00. Moreover, the Ki on 5-HT4 receptor amounted to 1.4 nM. Besides, the pEC50 in test [1] is 8.34.
